Assay results reported in PMC7217877, “N-AS-triggered SPMs are direct regulators of microglia in a model of Alzheimer’s disease” (Nature Communications, 2020).
Where a chain is given by its changes, count along the chain named. Where “and” joins values, the source holds several entries; their conditions need not be identical. Identical values can stand only once.

What was measured:
COX2 T564A = molecular target: T1, COX2 T564A (Homo sapiens, UniProt P35354, T564A); test: filter binding assay of [14C] N-AS to COX2; settings: replicates
T1 construct: His (N); made in house
T1 sequence (P35354 18-604 T564A): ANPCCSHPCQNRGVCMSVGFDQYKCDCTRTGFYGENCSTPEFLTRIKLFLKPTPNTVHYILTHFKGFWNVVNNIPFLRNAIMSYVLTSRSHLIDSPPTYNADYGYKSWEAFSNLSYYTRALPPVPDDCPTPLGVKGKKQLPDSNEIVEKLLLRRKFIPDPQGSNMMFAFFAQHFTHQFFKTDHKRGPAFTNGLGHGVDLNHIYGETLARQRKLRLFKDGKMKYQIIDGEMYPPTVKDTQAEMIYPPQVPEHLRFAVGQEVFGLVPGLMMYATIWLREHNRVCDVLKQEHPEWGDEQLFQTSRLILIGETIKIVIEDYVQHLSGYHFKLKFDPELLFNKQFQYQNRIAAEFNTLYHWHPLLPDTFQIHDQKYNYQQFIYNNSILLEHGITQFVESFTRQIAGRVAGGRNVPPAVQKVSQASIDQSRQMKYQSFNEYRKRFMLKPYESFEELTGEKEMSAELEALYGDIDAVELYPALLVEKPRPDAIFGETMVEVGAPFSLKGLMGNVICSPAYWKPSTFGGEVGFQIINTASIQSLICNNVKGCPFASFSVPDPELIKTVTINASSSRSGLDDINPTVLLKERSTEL
Excerpt: (§1) Single point mutations in SphK1 (R56A, R57A, R24A, R185A, D178A, and F192A) and COX2 (S565A, N181A, T564A, and S567A) were generated using the In-Fusion Cloning Kits (Clontech) and ORF cDNA expression plasmids of human SphK1 and COX2 gene (Sino Biological Inc, HG15679-NH and HG12036-NH), according to the manufacturer’s instructions. The forward and reverse primers described in Supplementary Table 4. The SphK1 WT, SphK1 mutants, COX2 WT, and COX2 mutant plasmids were transformed in the One shot TOP 10 competent cell (Invitrogen). The bacteria were grown in Luria-Bertani (LB, Invitrogen) plates supplemented with 50 μg ml^−1 kanamycin (Sigma-Aldrich) at 37 °C. The bacterial cell pellets were resuspended in lysis buffer containing 20 mM sodium phosphate (GE Healthcare), 500 mM NaCl (GE Healthcare), 20 mM imidazole (pH 7.4) (GE Healthcare), 0.2 mg ml^−1 lysozyme (Sigma-Aldrich), 20 μg ml^−1 DNase I (Roche), 1 mM MgCl2 (Sigma-Aldrich), and 1 mM PMSF (Sigma-Aldrich) before being lysed by sonication and clarified by centrifugation at 15,493×g for 10 min. Proteins were purified from the soluble fraction using His-Spin Trap columns (GE Healthcare) and the binding and acetylation assays were performed.
(§2) Briefly, SphK1 WT and mutant enzymes (1 mU) were resuspended in 100 μl reaction buffer (20 mM HEPES; pH 7.4, 50 mM NaCl, 10 mM MgCl2, 1 mM EGTA, 0.02% Triton-X100, and 100 μM sphingosine, all from Sigma-Aldrich). […] Briefly, COX2 WT and mutant enzymes (1 mU) were resuspended in 100 μl reaction buffer (20 mM HEPES; pH 7.4, 50 mM NaCl, 10 mM MgCl2, 1 mM EGTA, and 0.02% Triton-X100, all from Sigma-Aldrich). Reactions were initiated by adding [^14C] N-AS (1–200 μM (0.1–20 μCi), ARC UK Ltd, ARC-1024) and incubated at 37 °C for 1 h. The reactions were terminated by adding 100 μl of ice-cold reaction buffer containing 5 mM cold N-AS and immediately filtered through P30 filtermat (Perkin-Elmer), followed by five washes.
(§3) The binding velocity was plotted and the Kcat and KM values were calculated from the Michaelis-Menten analysis using the Sigma-plot program (ver 10.0, Systat software Inc.).

COX2 WT = molecular target: T2, COX2 WT (Homo sapiens, UniProt P35354); test: filter binding assay of [14C] N-AS to COX2; settings: COX2 Control, replicates
T2 construct: His (N); made in house
T2 sequence (P35354 18-604): T1 sequence (P35354 18-604 T564A) with A547T
Excerpt: as §1, §2, §3

CCCCCCCCCCCCC/C=C/[C@@H](O)[C@H](CO)NC(C)=O [N-AS, N-((2S,3R,E)-1,3-Dihydroxyoctadec-4-en-2-yl)acetamide]
binding velocity (Vbinding) (COX2 T564A; 1 uM): 0.251 nM/min and 0.379 nM/min and 0.622 nM/min
binding velocity (Vbinding) (COX2 T564A; 5 uM): 7.230 nM/min and 6.808 nM/min and 11.168 nM/min
binding velocity (Vbinding) (COX2 T564A; 10 uM): 7.378 nM/min and 8.069 nM/min and 9.338 nM/min
binding velocity (Vbinding) (COX2 T564A; 20 uM): 12.382 nM/min and 16.697 nM/min and 16.993 nM/min
binding velocity (Vbinding) (COX2 T564A; 100 uM): 28.376 nM/min and 29.582 nM/min and 24.951 nM/min
binding velocity (Vbinding) (COX2 T564A; 200 uM): 37.587 nM/min and 41.759 nM/min and 47.017 nM/min
binding velocity (Vbinding) (COX2 WT; 1 uM (100 pmol)): 0.888 nM/min and 1.293 nM/min and 0.920 nM/min
binding velocity (Vbinding) (COX2 WT; 5 uM (500 pmol)): 5.664 nM/min and 7.362 nM/min and 11.711 nM/min
binding velocity (Vbinding) (COX2 WT; 10 uM (1000 pmol)): 14.955 nM/min and 10.446 nM/min and 14.278 nM/min
binding velocity (Vbinding) (COX2 WT; 20 uM (2000 pmol)): 30.848 nM/min and 29.462 nM/min and 25.197 nM/min
binding velocity (Vbinding) (COX2 WT; 100 uM (10000 pmol)): 52.281 nM/min and 47.667 nM/min and 52.002 nM/min
binding velocity (Vbinding) (COX2 WT; 200 uM (20000 pmol)): 58.338 nM/min and 57.809 nM/min and 65.044 nM/min
